Experimental data: article PMC6979384, “Characterization of the plant homeodomain (PHD) reader family for their histone tail interactions” (Epigenetics & Chromatin, 2020)

How the values were obtained:
Test in all cases: Histone peptide microarray
Format in all cases: binding, human
Conditions in all cases: total n = 4
KDM5B (1) = test system: KDM5B (1)
Outline: (§1)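 A peptide microarray holding 293 synthetic histone peptides with individual or combinatorial modifications was probed with each GST-PHD protein at 0.5 μM. Values represent mean intensity (±SD) from four replicates.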

ING1 = test system: ING1
Outline: as §1

BAZ2B = test system: BAZ2B
Outline: as §1

KDM4C (TTP) = test system: KDM4C (TTP)
Outline: as §1

PHF2 = test system: PHF2
Outline: as §1

KDM5A (1) = test system: KDM5A (1)
Outline: as §1

PHF8 = test system: PHF8
Outline: as §1

PHRF1 (RP) = test system: PHRF1 (RP)
Outline: as §1

TRIM66 (PB) = test system: TRIM66 (PB)
Outline: as §1

PHF23 = test system: PHF23
Outline: as §1

ING4 = test system: ING4
Outline: as §1

ING2 = test system: ING2
Outline: as §1

TAF3 = test system: TAF3
Outline: as §1

CHD4 (PPCC) = test system: CHD4 (PPCC)
Outline: as §1

DIDO1 = test system: DIDO1
Outline: as §1

CHD5 (PCC) = test system: CHD5 (PCC)
Outline: as §1

SP140L = test system: SP140L
Outline: as §1

KDM5A (3) = test system: KDM5A (3)
Outline: as §1

BPTF (PB) = test system: BPTF (PB)
Outline: as §1

ING5 = test system: ING5
Outline: as §1

MORC3 (CW) = test system: MORC3 (CW)
Outline: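 GST-tagged PHD finger readers were expressed, purified and applied at 0.5 μM to a microarray of 293 synthetic histone peptides carrying single or combinatorial PTMs, using an optimized protocol. Binding signals are averages with standard deviation from 4 replicates.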

CHD5 (PPCC) = test system: CHD5 (PPCC)
Outline: as §1

MLL5 = test system: MLL5
Outline: as §1

DPF2 (PPC2W2) = test system: DPF2 (PPC2W2)
Outline: as §1

PHF13 = test system: PHF13
Outline: as §1

KDM7A = test system: KDM7A
Outline: as §1

RAG2 = test system: RAG2
Outline: as §1

AIRE (PP) = test system: AIRE (PP)
Outline: as §1

ING3 = test system: ING3
Outline: as §1

KDM5B (3) = test system: KDM5B (3)
Outline: as §1

PHF21A = test system: PHF21A
Outline: as §1

[1] = sheet "Array Heatmap", GST-tagged reader, histone peptide array

H3K4me3 + K9me3: H3 1-20
Array Heatmap signal, KDM5B (1) (KDM5B (1); [1]): 0.6368
Array Heatmap signal, ING1 (ING1; [1]): 0.6677
Array Heatmap signal, BAZ2B (BAZ2B; [1]): 0.4905
Array Heatmap signal, KDM4C (TTP) (KDM4C (TTP); [1]): 0.5629
Array Heatmap signal, PHF2 (PHF2; [1]): 0.6501
Array Heatmap signal, KDM5A (1) (KDM5A (1); [1]): 0.4868
Array Heatmap signal, PHF8 (PHF8; [1]): 0.4712
Array Heatmap signal, PHRF1 (RP) (PHRF1 (RP); [1]): 0.5034
Array Heatmap signal, TRIM66 (PB) (TRIM66 (PB); [1]): 0.5701
Array Heatmap signal, PHF23 (PHF23; [1]): 0.5934
Array Heatmap signal, ING4 (ING4; [1]): 0.4847
Array Heatmap signal, ING2 (ING2; [1]): 0.7112
Array Heatmap signal, TAF3 (TAF3; [1]): 0.3501
Array Heatmap signal, CHD4 (PPCC) (CHD4 (PPCC); [1]): 0.5681
Array Heatmap signal, DIDO1 (DIDO1; [1]): 0.7556
Array Heatmap signal, CHD5 (PCC) (CHD5 (PCC); [1]): 0.7845
Array Heatmap signal, SP140L (SP140L; [1]): 0.3795
Array Heatmap signal, KDM5A (3) (KDM5A (3); [1]): 0.6222
Array Heatmap signal, BPTF (PB) (BPTF (PB); [1]): 0.3806
Array Heatmap signal, ING5 (ING5; [1]): 0.4091
Array Heatmap signal, MORC3 (CW) (MORC3 (CW); [1]): 0.5189
Array Heatmap signal, CHD5 (PPCC) (CHD5 (PPCC); [1]): 0.5893
Array Heatmap signal, MLL5 (MLL5; [1]): 0.6708
Array Heatmap signal, DPF2 (PPC2W2) (DPF2 (PPC2W2); [1]): 0.7108
Array Heatmap signal, PHF13 (PHF13; [1]): 0.6561
Array Heatmap signal, KDM7A (KDM7A; [1]): 0.4063
Array Heatmap signal, RAG2 (RAG2; [1]): 0.359
Array Heatmap signal, AIRE (PP) (AIRE (PP); [1]): 0.4775
Array Heatmap signal, ING3 (ING3; [1]): 0.5385
Array Heatmap signal, KDM5B (3) (KDM5B (3); [1]): 0.5506
Array Heatmap signal, PHF21A (PHF21A; [1]): 0.4927

H3K4me3 + K14ac + K18ac: H3 1-20
Array Heatmap signal (histone peptide microarray) (KDM5B (1); GST-tagged KDM5B (1), sheet Array Heatmap, each array performed twice): 0.8317
Array Heatmap signal (histone peptide microarray) (ING1; GST-tagged ING1, sheet Array Heatmap, each array performed twice): 0.9274
Array Heatmap signal (histone peptide microarray) (BAZ2B; GST-tagged BAZ2B, sheet Array Heatmap, each array performed twice): 0.6645
Array Heatmap signal (histone peptide microarray) (KDM4C (TTP); GST-tagged KDM4C (TTP = Tandem Tudor domain + PHD), sheet Array Heatmap, each array performed twice): 0.868
Array Heatmap signal (histone peptide microarray) (PHF2; GST-tagged PHF2, sheet Array Heatmap, each array performed twice): 0.829
Array Heatmap signal (histone peptide microarray) (KDM5A (1); GST-tagged KDM5A (1), sheet Array Heatmap, each array performed twice): 0.5146
Array Heatmap signal (histone peptide microarray) (PHF8; GST-tagged PHF8, sheet Array Heatmap, each array performed twice): 0.9943
Array Heatmap signal (histone peptide microarray) (PHRF1 (RP); GST-tagged PHRF1 (RP), sheet Array Heatmap, each array performed twice): 0.6285
Array Heatmap signal (histone peptide microarray) (TRIM66 (PB); GST-tagged TRIM66 (PB = PHD + Bromodomain), sheet Array Heatmap, each array performed twice): 0.7091
Array Heatmap signal (histone peptide microarray) (PHF23; GST-tagged PHF23, sheet Array Heatmap, each array performed twice): 0.9183
Array Heatmap signal (histone peptide microarray) (ING4; GST-tagged ING4, sheet Array Heatmap, each array performed twice): 0.8448
Array Heatmap signal (histone peptide microarray) (ING2; GST-tagged ING2, sheet Array Heatmap, each array performed twice): 0.908
Array Heatmap signal (histone peptide microarray) (TAF3; GST-tagged TAF3, sheet Array Heatmap, each array performed twice): 1
Array Heatmap signal (histone peptide microarray) (CHD4 (PPCC); GST-tagged CHD4 (PPCC = Dual PHD + Dual Chromodomain), sheet Array Heatmap, each array performed twice): 0.5986
Array Heatmap signal (histone peptide microarray) (DIDO1; GST-tagged DIDO1, sheet Array Heatmap, each array performed twice): 0.9566
Array Heatmap signal (histone peptide microarray) (CHD5 (PCC); GST-tagged CHD5 (PCC = PHD + Dual Chromodomain), sheet Array Heatmap, each array performed twice): 0.8498
Array Heatmap signal (histone peptide microarray) (SP140L; GST-tagged SP140L, sheet Array Heatmap, each array performed twice): 0.3709
Array Heatmap signal (histone peptide microarray) (KDM5A (3); GST-tagged KDM5A (3), sheet Array Heatmap, each array performed twice): 0.9424
Array Heatmap signal (histone peptide microarray) (BPTF (PB); GST-tagged BPTF (PB = PHD + Bromodomain), sheet Array Heatmap, each array performed twice): 1
Array Heatmap signal (histone peptide microarray) (ING5; GST-tagged ING5, sheet Array Heatmap, each array performed twice): 0.6681
Array Heatmap signal (histone peptide microarray) (MORC3 (CW); GST-tagged MORC3 (CW = CW-type Zn-finger), sheet Array Heatmap, each array performed twice): 0.9877
Array Heatmap signal (histone peptide microarray) (CHD5 (PPCC); GST-tagged CHD5 (PPCC = Dual PHD + Dual Chromodomain), sheet Array Heatmap, each array performed twice): 0.6153
Array Heatmap signal (histone peptide microarray) (MLL5; GST-tagged MLL5, sheet Array Heatmap, each array performed twice): 0.9197
Array Heatmap signal (histone peptide microarray) (DPF2 (PPC2W2); GST-tagged DPF2 (PPC2W2 = Dual PHD + C2W2-type Zn-finger), sheet Array Heatmap, each array performed twice): 0.7705
Array Heatmap signal (histone peptide microarray) (PHF13; GST-tagged PHF13, sheet Array Heatmap, each array performed twice): 0.9146
Array Heatmap signal (histone peptide microarray) (KDM7A; GST-tagged KDM7A, sheet Array Heatmap, each array performed twice): 0.7919
Array Heatmap signal (histone peptide microarray) (RAG2; GST-tagged RAG2, sheet Array Heatmap, each array performed twice): 1
Array Heatmap signal (histone peptide microarray) (AIRE (PP); GST-tagged AIRE (PP), sheet Array Heatmap, each array performed twice): 0.5611
Array Heatmap signal (histone peptide microarray) (ING3; GST-tagged ING3, sheet Array Heatmap, each array performed twice): 1
Array Heatmap signal (histone peptide microarray) (KDM5B (3); GST-tagged KDM5B (3), sheet Array Heatmap, each array performed twice): 0.9729
Array Heatmap signal (histone peptide microarray) (PHF21A; GST-tagged PHF21A, sheet Array Heatmap, each array performed twice): 0.4924
